Key:
[1] = system: SH-SY5Y (human neuroblastoma) cell line; assay: xCELLigence Real Time Cell Analysis (RTCA) of cell viability/proliferation
Experimental: (§1) This study utilized SH-SY5Y (human neuroblastoma) cell lines. […] After dissolving the cell line stored in a nitrogen tank for long-term use, the cells were removed from the culture dish with a 0.25 Trypsin/EDTA solution when they reached 70% density in the culture flasks. The cells were incubated in DMEM (Capricorn) supplemented with 10% heat-inactivated fetal bovine serum (FBS) and 0.1 mg/ml of penicillin at 37°C with 5% CO2. The medium was refreshed every 48 hours, and passages were made every 5 days based on cell confluency.
RTCA system is an analytical technique that follows cellular events such as proliferation by measuring the electric impedance passing through microelectrodes integrated beneath 96-well special plates in real-time. A 16-well e-plate compatible with the RTCA device was used, with 8 wells by 2. Firstly, 100 μl of cell culture was added to the plates to obtain the background density. Then, 3x10^4 cells were seeded in 100 μl of culture medium on top of the culture. After 24 h, the determined concentration ranges were applied.
Therefore, in this study, the concentrations of 5-10-15-25-50 μM were applied to find the optimum dose. […] There was only one study on a different cell line for quinine. […] The concentration range of 25-50-60-70-75-80-100 μM was chosen for etoperidone based on cell viability tests conducted with its analogue, trazadone.
For each selected dose, the drug was applied to two different wells. The first two wells were designated as the control group without drug application. The growth curve data was obtained from the graph generated by the device 48 h after drug application. The RTCA was repeated three times for each drug group. The IC50 calculations and the percent cell viability graphs compared to the control group were obtained from the data obtained from the three repeats.
(§2) All the analysis data from the RTCA device and the data generated from the MARS application using the microplate reader (OMEGA) were calculated in the GraphPad Prism 9.5.1 version using the ordinary one-way ANOVA multiple comparisons Tukey test. The results were graphically represented in Excel. Logarithmic calculations were made from the dose-response graph in Excel to obtain the IC50 values.

[2] = system: SH-SY5Y (human neuroblastoma) cell line; assay: MTT cell viability assay; settings: 48 h
Experimental: as §1
The MTT (3-(4,5-dimethylthiazol-2-yl)-2,5-diphenyltetrazolium bromide) assay is a commonly used colorimetric assay to measure cellular viability. […] The amount of formazan produced can be measured by determining the absorbance of the solution at a specific wavelength, which is proportional to the number of viable cells. This assay is widely used in cell biology and drug discovery research to evaluate the cytotoxic effects of various agents on cell viability.
In this study, the MTT assay was selected as the cell viability test. 12,500 cells were seeded per well in a 96-well plate. The cells were then incubated at 37°C with 5% CO2 for 24 h. After 24 h, the old medium was removed and drugs prepared by serial dilution in 100 μl of DMEM within the determined concentration range were applied to three wells, with one well selected as a control (untreated). The plate was then incubated at 37°C with 5% CO2 for another 48 h. After 48 h, […] of 10% MTT (Roche) solution in DMEM was added to each well, and two empty wells were added with only MTT solution for background measurement. After 4 h, 100 μl of solubilizing buffer was added to each well. The plate was incubated at 37°C with 5% CO2 for 16 h. After 16 h, the cell number in each sample was determined by measuring the absorbance spectrophotometrically at […] using a microplate reader (OMEGA). The data was used to determine the percentage relative to the control and create a dose-cell viability graph.
as §2

Structure (SMILES)	concentration that significantly reduced cell viability compared to the control group (p < 0.001) ([1]; 48 h, RTCA) [µM]	concentration up to which no cytotoxicity was observed (cell index) ([1]; 48 h, RTCA) [µM]	safe optimum concentration that does not harm cell viability ([1]; based on both RTCA and MTT) [µM]	concentration (and below) with cell viability close to the control, no cytotoxicity [2] [µM]	cytotoxic concentration in correlation with RTCA findings [2] [µM]	cytotoxicity ([1]; 48 h, RTCA, 150-4800 μM)	IC50 ([1]; Homo sapiens, 48 h, read-out: IC50 ± SEM) [mM]	harmful effect on cell viability ([1]; based on both RTCA and MTT)	cytotoxicity [2]	concentration that significantly reduced cell viability compared to the control group (p < 0.001) ([1]; 48 h, RTCA, listed as galantamine) [µM]
CCc1nn(CCCN2CCN(c3cccc(Cl)c3)CC2)c(=O)n1CC [Etoperidone]	100	≤ 70	70	≤ 70	100					
Cc1ncc(C[n+]2csc(CCO)c2C)c(N)n1 [Thiamine]		≤ 4800				no significant cytotoxicity at any applied concentration	18.8	no dose of Thiamine applied exhibited harmful effects	did not show any cytotoxic effect at any concentration	
COc1ccc2c3c1O[C@H]1C[C@@H](O)C=C[C@@]31CCN(C)C2 [Galantamine]	100	≤ 10	10	≤ 10	25					25 to 50
Nc1nc2[nH]cc(CN[C@H]3C=C[C@H](O)[C@@H]3O)c2c(=O)[nH]1 [Queuine]	5	≤ 1.25	1.25	≤ 1.25	5					

— PMC10138233 (PLOS ONE, 2023)
